pKi: −log10 of the molar value. Where a name gives a salt, the structure may show the parent alone. Read-outs that look alike come from different tables or passages of the source.

The target in data set [1] is human cloned 5-HT6 receptors (Homo sapiens, UniProt P50406). Description: Evaluation of 5-HT6 binding affinity ([3H]-LSD displacement, membranes of Hela cells).
Sequence of human cloned 5-HT6 receptors (P50406 whole entry): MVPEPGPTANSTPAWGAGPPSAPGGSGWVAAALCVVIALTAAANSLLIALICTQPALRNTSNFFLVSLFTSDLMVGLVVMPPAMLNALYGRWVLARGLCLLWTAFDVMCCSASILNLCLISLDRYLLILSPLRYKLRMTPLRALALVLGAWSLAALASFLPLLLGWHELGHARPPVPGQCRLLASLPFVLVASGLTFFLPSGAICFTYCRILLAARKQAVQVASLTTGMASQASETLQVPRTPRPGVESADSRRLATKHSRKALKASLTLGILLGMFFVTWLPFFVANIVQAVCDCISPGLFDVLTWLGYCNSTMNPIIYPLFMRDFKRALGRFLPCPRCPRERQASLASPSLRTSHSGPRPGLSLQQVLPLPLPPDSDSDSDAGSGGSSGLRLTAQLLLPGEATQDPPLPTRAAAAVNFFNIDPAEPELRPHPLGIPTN

One may read the melting point as the temperature of the solid-liquid transition. Compound `CNC[C@H]1COc2ccc3[nH]nc(S(=O)(=O)c4cccc5ccccc45)c3c2O1` (as salt: hydrochloride) [Example 6, N-Methyl-1-[(2S)-9-(1-naphthylsulfonyl)-2,3-dihydro-7H-[1,4]dioxino [2,3-e]indazol-2-yl]methanamine Hydrochloride] returned a melting point of 181.3 to 183.3 °C.
In turn, `CCNC[C@H]1COc2ccc3[nH]nc(S(=O)(=O)c4cccc5ccccc45)c3c2O1` (as salt: hydrochloride) [Example 7, N-{[(2S)-9-(1-naphthylsulfonyl)-2,3-dihydro-7H-[1,4]dioxino[2,3-e]indazol-2-yl]-methyl}ethanamine] showed a melting point of 178.9 to 180.1 °C.
Still for that read-out and setting: for `CN(C)C[C@H]1COc2ccc3[nH]nc(S(=O)(=O)c4cccc5ccccc45)c3c2O1` (as salt: hydrochloride) [Example 8, N,N-dimethyl-1-[(2S)-9-(1-naphthylsulfonyl)-2,3-dihydro-7H-[1,4]dioxino[2,3-e]-indazol-2-yl]methanamine] the value was 178.1 to 181.3 °C.
In turn, `CCN(CC)C[C@H]1COc2ccc3[nH]nc(S(=O)(=O)c4cccc5ccccc45)c3c2O1` (as salt: hydrochloride) [Example 9, N-ethyl-N-{[(2S)-9-(1-naphthylsulfonyl)-2,3-dihydro-7H-[1,4]dioxino[2,3-e]indazol-2-yl]methyl}ethanamine] registered a melting point of 175.6 to 177.2 °C.
Same read-out and setting: for `O=S(=O)(c1cccc2ccccc12)c1n[nH]c2ccc3c(c12)O[C@@H](CN1CCCC1)CO3` (as salt: hydrochloride) [Example 10, (2S)-9-(1-naphthylsulfonyl)-2-(pyrrolidin-1-ylmethyl)-2,3-dihydro-7H-[1,4]dioxino-[2,3-e]indazole] the value was 182.6 to 184.3 °C.
On the same count and under the same terms, then `O=S(=O)(c1cccc2ccccc12)c1n[nH]c2ccc3c(c12)O[C@@H](CN1CCCCC1)CO3` (as salt: hydrochloride) [Example 11, (2S)-9-(1-naphthylsulfonyl)-2-(piperidin-1-ylmethyl)-2,3-dihydro-7H-[1,4]dioxino-[2,3-e]indazole], with 163.9 to 165.2 °C; and `CNC[C@@H]1COc2ccc3[nH]nc(S(=O)(=O)c4cccc5ccccc45)c3c2O1` (as salt: hydrochloride) [Example 12, N-methyl-1-[(2R)-9-(1-naphthylsulfonyl)-2,3-dihydro-7H-[1,4]dioxino[2,3-e]indazol-2-yl]methanamine], with > 200 °C.
The same measure, in the same setting: then `CN(C)C[C@@H]1COc2ccc3[nH]nc(S(=O)(=O)c4cccc5ccccc45)c3c2O1` (as salt: hydrochloride) [Example 13, N,N-dimethyl-1-[(2R)-9-(1-naphthylsulfonyl)-2,3-dihydro-7H-[1,4]dioxino[2,3-e]-indazol-2-yl]methanamine], with > 200 °C.
For the compound `CCN(CC)C[C@@H]1COc2ccc3[nH]nc(S(=O)(=O)c4cccc5ccccc45)c3c2O1` (as salt: hydrochloride) [Example 14, N-ethyl-N-{[(2R)-9-(1-naphthylsulfonyl)-2,3-dihydro-7H-[1,4]dioxino[2,3-e]indazol-2yl]-methyl}ethanamine], the melting point was > 200 °C.
The same measure, in the same setting: then `CCNC[C@@H]1COc2ccc3[nH]nc(S(=O)(=O)c4cccc5ccccc45)c3c2O1` (as salt: hydrochloride) [Example 15, N-{[(2R)-9-(1-naphthylsulfonyl)-2,3-dihydro-7H-[1,4]dioxino[2,3-e]indazol-2yl]methyl}-ethanamine], with 182 to 184 °C; and `O=S(=O)(c1cccc2ccccc12)c1n[nH]c2ccc3c(c12)O[C@H](CN1CCCC1)CO3` (as salt: hydrochloride) [Example 16, (2R)-9-(1-naphthylsulfonyl)-2-(pyrrolidin-1-ylmeyhyl)-2,3-dihydro-7H-[1,4]dioxino-[2,3-e]indazole], with 184 to 186 °C; and `O=S(=O)(c1cccc2ccccc12)c1n[nH]c2ccc3c(c12)O[C@H](CN1CCCCC1)CO3` (as salt: hydrochloride) [Example 17, (2R)-9-(1-naphthylsulfonyl)-2-(piperidin-1-ylmeyhyl)-2,3-dihydro-7H [1,4]dioxino-[2,3-e]indazole], with 187 to 189 °C.
The term pKi denotes −log10 of the Ki, conventionally taken in molar units. Consider `CNC[C@H]1COc2ccc3[nH]nc(S(=O)(=O)c4cccc5ccccc45)c3c2O1` [Example 6, N-Methyl-1-[(2S)-9-(1-naphthylsulfonyl)-2,3-dihydro-7H-[1,4]dioxino [2,3-e]indazol-2-yl]methanamine Hydrochloride], for which the pKi in data set [1] was 7.35.
On the same count and under the same terms, then `CCNC[C@H]1COc2ccc3[nH]nc(S(=O)(=O)c4cccc5ccccc45)c3c2O1` [Example 7, N-{[(2S)-9-(1-naphthylsulfonyl)-2,3-dihydro-7H-[1,4]dioxino[2,3-e]indazol-2-yl]-methyl}ethanamine], with 7.08; and `CN(C)C[C@H]1COc2ccc3[nH]nc(S(=O)(=O)c4cccc5ccccc45)c3c2O1` [Example 8, N,N-dimethyl-1-[(2S)-9-(1-naphthylsulfonyl)-2,3-dihydro-7H-[1,4]dioxino[2,3-e]-indazol-2-yl]methanamine], with 7.21.
Same read-out and setting: then `CCN(CC)C[C@H]1COc2ccc3[nH]nc(S(=O)(=O)c4cccc5ccccc45)c3c2O1` [Example 9, N-ethyl-N-{[(2S)-9-(1-naphthylsulfonyl)-2,3-dihydro-7H-[1,4]dioxino[2,3-e]indazol-2-yl]methyl}ethanamine], with 7.87; and `O=S(=O)(c1cccc2ccccc12)c1n[nH]c2ccc3c(c12)O[C@@H](CN1CCCC1)CO3` [Example 10, (2S)-9-(1-naphthylsulfonyl)-2-(pyrrolidin-1-ylmethyl)-2,3-dihydro-7H-[1,4]dioxino-[2,3-e]indazole], with 7.51.
The same measure, in the same setting: then `O=S(=O)(c1cccc2ccccc12)c1n[nH]c2ccc3c(c12)O[C@@H](CN1CCCCC1)CO3` [Example 11, (2S)-9-(1-naphthylsulfonyl)-2-(piperidin-1-ylmethyl)-2,3-dihydro-7H-[1,4]dioxino-[2,3-e]indazole], with 7.10.
In data set [1], `CNC[C@@H]1COc2ccc3[nH]nc(S(=O)(=O)c4cccc5ccccc45)c3c2O1` [Example 12, N-methyl-1-[(2R)-9-(1-naphthylsulfonyl)-2,3-dihydro-7H-[1,4]dioxino[2,3-e]indazol-2-yl]methanamine] gave a pKi of 7.26.
On the same count and under the same terms, then `CN(C)C[C@@H]1COc2ccc3[nH]nc(S(=O)(=O)c4cccc5ccccc45)c3c2O1` [Example 13, N,N-dimethyl-1-[(2R)-9-(1-naphthylsulfonyl)-2,3-dihydro-7H-[1,4]dioxino[2,3-e]-indazol-2-yl]methanamine], with 7.51.
With `CCN(CC)C[C@@H]1COc2ccc3[nH]nc(S(=O)(=O)c4cccc5ccccc45)c3c2O1` [Example 14, N-ethyl-N-{[(2R)-9-(1-naphthylsulfonyl)-2,3-dihydro-7H-[1,4]dioxino[2,3-e]indazol-2yl]-methyl}ethanamine], the pKi in data set [1] was 7.38.
Same read-out and setting: for `CCNC[C@@H]1COc2ccc3[nH]nc(S(=O)(=O)c4cccc5ccccc45)c3c2O1` [Example 15, N-{[(2R)-9-(1-naphthylsulfonyl)-2,3-dihydro-7H-[1,4]dioxino[2,3-e]indazol-2yl]methyl}-ethanamine] the value was 7.49; for `O=S(=O)(c1cccc2ccccc12)c1n[nH]c2ccc3c(c12)O[C@H](CN1CCCC1)CO3` [Example 16, (2R)-9-(1-naphthylsulfonyl)-2-(pyrrolidin-1-ylmeyhyl)-2,3-dihydro-7H-[1,4]dioxino-[2,3-e]indazole], 7.40; for `O=S(=O)(c1cccc2ccccc12)c1n[nH]c2ccc3c(c12)O[C@H](CN1CCCCC1)CO3` [Example 17, (2R)-9-(1-naphthylsulfonyl)-2-(piperidin-1-ylmeyhyl)-2,3-dihydro-7H [1,4]dioxino-[2,3-e]indazole], 7.44.
As for `CCCCNC[C@@H]1COc2ccc3[nH]nc(S(=O)(=O)c4cccc5ccccc45)c3c2O1` [Example 18], the pKi in data set [1] (read-out: 5-HT6 Binding Ki, [3H]-LSD 3.0 nM, Hela cell membranes expressing human cloned 5-HT6 receptors, 120 minutes at room temperature) was 7.52.

The values are drawn from patent publication US20070244179A1, “Dihydro[1,4]dioxino[2,3-e]indazole derivatives as 5-hydroxytryptamine-6 ligands” (Wyeth, priority 2006, published 2007).
